Reference: US12329149B2, “Apparatus and methods for irradiating organ perfusates” (University Health Network, priority 2017, dated 2025)

Columns and labels:
[1] = test system: Staphylococcus aureus, Stenotrophomonas maltophilia, and Pseudomonas aeruginosa; conditions: antibiotic 333 mg/L, LB Agar plates, UVC group 0
Procedure: Methods: A mixture of low-potassium-dextran lung perfusion solution and Lysogeny Broth (LB) media was spiked with 1,0×10^5 CFU/mL of Staphylococcus aureus, Stenotrophomonas maltophilia, and Pseudomonas aeruginosa. A mini EVLP and UVC irradiator was used (FIG. 7). After priming, the circuits were divided into three groups (n=4, each) and evaluated for 180 minutes: 1) Control (no treatment); 2) UVC (236 nm, 9 J/cm^2) and 3) Antibiotic (Imipenem/Cilastatin, 333 mg/L). Samples were taken at different timepoints and analysed, using LB Agar culture plates and bacterial DNA qPCR assay.

HCV = experiment: EVLP of HCV+ human donor lungs with light therapy, viral load by RealTime PCR
Procedure: (§1) Human Lung Studies: effect of EVLP and light therapies into HCV titers: In order to evaluate the effect of EVLP itself and also as a platform for light-based therapies against HCV titers in the lung tissue and perfusate solution, 9 rejected human lungs from NAT+ HCV donors. Donor lungs were recovered using standard protocols and flushed with cold Low-Potassium Dextran (LPD) solution and preserved at 4° C. as routine clinical practice. Following the pre-EVLP flush, the lungs were placed in 2 independent EVLP circuits for 9 hours. One lung was the control group (standard EVLP protocol, (n=9), whereas the other lung was randomly subjected to different treatment conditions (n=3, each) (FIG. 13A): (1) Intense lung wash (replacement of perfusate solution and circuit after 3 h of EVLP); (2) Ultra Violet C (UVC) light (260 nm, 4 W) applied to EVLP perfusate; (3) Photodynamic Therapy (PDT), using Methylene Blue (MB) diluted in the perfusion solution (1 umol/L) associated with red light irradiation (630 nm, 20 mW/cm^2). The advantage of such design is that both control and treated lungs come from the same donor (same virus load as baseline). Tissue biopsies were collected from lower, and upper lobes of the lungs at baseline and every 3 h during perfusion and perfusate samples were collected hourly. All samples were assessed for viral load quantification using RealTime PCR assay. The results were normalized for percentage of viral load decrease. To translate the application of light therapies to an EVLP system, a specific device suitable to be inserted inline in the EVLP circuit where different light wavelengths could be applied to treat the perfusion solution.

[2] = Ex vivo lung function during 9 hours of EVLP of human donor lungs; conditions: PDT (MB 1 umol/L + red light) applied to circuit, 9 hours EVLP
Procedure: as §1, with “The results were normalized for percentage of viral load decrease. To translate the application of light therapies to an EVLP system, a specific device suitable to be inserted inline in the EVLP circuit where different light wavelengths could be applied to treat the perfusion solution.” left out

[3] = Pre-clinical large animal lung transplant safety model (EVLP 6 h, left lung transplant, 4 h reperfusion); format: in vivo, Yorkshire male domestic pigs; conditions: PDT MB 1 umol/L + red light vs control and UVC
Procedure: In order to translate such approach to the clinical EVLP setting, the safety of applying UVC and PDT during EVLP was assessed using a pre-clinical large animal transplant model (FIG. 15D).
In this model, Yorkshire male domestic pigs (30-35 kg) were used, under anesthesia and mechanic ventilation. After lung withdrawal, lungs were preserved for 2 hours at 4° C., followed by EVLP for 6 hours. During EVLP, pig lungs were randomized for three groups (n=4, each): (1) Control (standard EVLP technique); (2) Ultra Violet C; (3) Photodynamic Therapy (PDT), using Methylene Blue (MB) diluted in the perfusion solution (1 umol/L) associated with red light irradiation. During EVLP, lung physiology was assessed (pulmonary vascular resistance, pulmonary artery pressure, left atrium (venous) pressure, peak airway pressure, plateau pressure, dynamic compliance, static compliance and gas exchange function-PO2); There was no difference in ex vivo lung function during 6 hours amongst the groups. After EVLP, the left lung was transplanted followed by 4 hours of reperfusion. Post-transplant blood gas samples were collected of the transplanted graft upper and lower pulmonary veins and the average of the partial pressure of arterial oxygen (PaO2)/fraction of inspired oxygen (FiO2) was calculated.

HCV JFH-1 strain = experiment: Mini-EVLP circuit spiked with HCV JFH-1, infectivity loss in Huh 7.5.1 hepatocyte culture

Row | Compound | bacterial growth after 180 minutes of treatment [1] [colonies/plate] | decrease of HCV titers in human donor lungs (HCV; PDT using MB as photosensitizer, summary statement) [%] | HCV titers in lung tissue, % reduction (HCV; PDT: methylene blue 1 umol/L + red light 630 nm, 20 mW/cm^2, 9 h EVLP, lung tissue, control 75.46%) [%] | perfusate HCV titres (% reduction from baseline) (HCV; PDT: methylene blue 1 umol/L + red light 630 nm/20 mW/cm^2, 9 h EVLP, perfusate, control 69.49%) [%] | ex vivo lung function during EVLP (delta P/F ratio, peak airway pressure, dynamic compliance) vs control lung [2] | post-transplant PaO2/FiO2 after 4 h of reperfusion, among the groups ([3]; pig left lung transplant) | ex vivo lung function during 6 hours EVLP amongst the groups ([3]; pig lungs) | perfusion time after which no infectivity was observed (HCV JFH-1 strain; PDT group, red light 630 nm, 20 mW/cm^2, JFH-1 1.5×10^6 copies/mL, 37° C.) [min] | effect on HCV infectivity with ambient (room) light activation compared with red light (HCV JFH-1 strain; regular room light instead of red light)
1 | Imipenem/Cilastatin | 15±2.3 | – | – | – | – | – | – | – | –
2 | CN(C)c1ccc2nc3ccc(=[N+](C)C)cc-3sc2c1 [Methylene blue] | – | 98 | 90.96 | 97.87 | no significant difference | no significant difference | no difference | 15 | weaker than with red light
